Measured values from ChEMBL document CHEMBL1154959, “The role of phosphate in the action of thymidine phosphorylase inhibitors: Implications for the catalytic mechanism” (Bioorg Med Chem Lett, 2010).
The source made the active and inactive calls. The rule behind the calls is not given here.

Experiments:
Thymidine phosphorylase = Thymidine phosphorylase (Escherichia coli K-12, UniProt P07650); assay: Inhibition of Escherichia coli thymidine phosphorylase
[1] = target: Thymidine phosphorylase (Escherichia coli K-12) (UniProt P07650); assay: Inhibition of Escherichia coli thymidine phosphorylase by spectrophotometry
Sequence of Thymidine phosphorylase (Escherichia coli K-12) (P07650 whole entry, looked up): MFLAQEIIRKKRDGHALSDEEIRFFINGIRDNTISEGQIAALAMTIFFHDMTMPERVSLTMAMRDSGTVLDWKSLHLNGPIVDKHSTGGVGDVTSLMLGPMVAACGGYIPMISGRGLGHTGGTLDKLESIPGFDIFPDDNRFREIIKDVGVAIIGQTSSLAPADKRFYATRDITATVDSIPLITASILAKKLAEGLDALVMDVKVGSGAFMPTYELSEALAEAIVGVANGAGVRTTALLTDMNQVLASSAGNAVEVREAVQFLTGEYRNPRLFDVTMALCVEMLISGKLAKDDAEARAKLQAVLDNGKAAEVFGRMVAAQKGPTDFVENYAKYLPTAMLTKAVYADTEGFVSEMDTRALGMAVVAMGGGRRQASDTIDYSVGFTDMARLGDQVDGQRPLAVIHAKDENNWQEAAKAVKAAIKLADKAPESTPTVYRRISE

Sequence of Thymidine phosphorylase (P07650 whole entry): as the sequence (P07650 whole entry, looked up) above

SMILES | Ki (Thymidine phosphorylase) [µM] | Activity [1]
Cc1cn([C@@H]2O[C@H](CO)[C@H]3C[C@@H](CP(=O)(O)O)O[C@H]32)c(=O)[nH]c1=O | 1 | –
N=C1CCCN1Cc1[nH]c(=O)[nH]c(=O)c1Cl | 0.035 | –
Nc1nccn1Cc1[nH]c(=O)[nH]c(=O)c1F | 0.011 | Active

Continued by falling Ki (Thymidine phosphorylase), values first:

Ki (Thymidine phosphorylase) [µM] | Activity [1] | SMILES
476 | – | Nc1c(Br)c(=O)[nH]c(=O)n1CCCCCCCCP(=O)(O)O
0.051 | – | O=c1[nH]c(Cn2ccnc2)c(F)c(=O)[nH]1
